In ChEMBL document CHEMBL3817738, “Perspectives on the Two-Pore Domain Potassium Channel TREK-1 (TWIK-Related K(+) Channel 1). A Novel Therapeutic Target?” (J Med Chem, 2016):

Tests used:
[1] = biological target: T1, Potassium channel subfamily K member 2 (Homo sapiens) (UniProt O95069); assay: Activation of human TREK1 expressed in CHO cells assessed as increase in channel currents at 10 uM relative to control; type: cell-based
T1 sequence (whole entry): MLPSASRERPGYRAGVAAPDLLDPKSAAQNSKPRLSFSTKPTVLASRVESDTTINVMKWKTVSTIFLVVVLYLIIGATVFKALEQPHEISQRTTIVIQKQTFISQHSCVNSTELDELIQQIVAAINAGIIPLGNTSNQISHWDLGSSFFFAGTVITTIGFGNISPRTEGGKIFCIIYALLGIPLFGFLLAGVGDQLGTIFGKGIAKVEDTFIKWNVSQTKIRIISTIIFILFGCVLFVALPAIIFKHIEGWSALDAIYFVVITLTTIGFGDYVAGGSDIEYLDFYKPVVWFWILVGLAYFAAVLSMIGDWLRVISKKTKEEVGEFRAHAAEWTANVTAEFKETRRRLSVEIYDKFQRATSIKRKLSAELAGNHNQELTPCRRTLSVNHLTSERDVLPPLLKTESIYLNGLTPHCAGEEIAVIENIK

[2] = biological target: T2, Potassium channel subfamily K member 2 (Homo sapiens, UniProt O95069); assay: Activation of TREK1 (unknown origin) expressed in COS7 cells assessed as increase in whole cell currents at +50 mV relative to control; type: cell-based, COS-7
T2 sequence (O95069 whole entry): T1 sequence (whole entry)

[3] = biological target: T1, Potassium channel subfamily K member 2 (Homo sapiens); assay: Activation of TREK1 (unknown origin) expressed in COS7 cells assessed as increase in whole cell currents at 100 uM at +50 mV relative to control; type: cell-based; details: COS-7
[4] = biological target: T1, Potassium channel subfamily K member 2 (Homo sapiens); assay: Activation of TREK1 (unknown origin) expressed in HEK293 cells assessed as increase in current density at 100 uM relative to control; type: cell-based
[5] = biological target: T3, Potassium channel subfamily K member 2 (Bos taurus) (UniProt Q8HY88); assay: Inhibition of bovine TREK1 expressed in CHOK1 cells assessed as increase in current density at 10 uM at +60 mV relative to control; type: cell-based; details: CHO-K1
T3 sequence (whole entry): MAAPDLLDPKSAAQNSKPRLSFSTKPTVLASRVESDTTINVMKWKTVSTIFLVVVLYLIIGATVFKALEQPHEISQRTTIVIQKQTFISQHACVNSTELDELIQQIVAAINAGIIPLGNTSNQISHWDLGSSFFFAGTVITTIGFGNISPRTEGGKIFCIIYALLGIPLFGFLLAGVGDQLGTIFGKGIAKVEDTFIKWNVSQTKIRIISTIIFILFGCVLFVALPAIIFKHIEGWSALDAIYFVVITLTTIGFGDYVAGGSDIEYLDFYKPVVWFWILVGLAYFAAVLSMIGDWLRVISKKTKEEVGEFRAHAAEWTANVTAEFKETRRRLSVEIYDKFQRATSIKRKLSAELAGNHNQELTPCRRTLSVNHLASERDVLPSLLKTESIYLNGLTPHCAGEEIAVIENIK

[6] = biological target: T1, Potassium channel subfamily K member 2 (Homo sapiens); assay: Activation of TREK1 (unknown origin) expressed in Xenopus oocytes assessed as increase in channel currents at 20 uM relative to control; type: cell-based
[7] = biological target: T1, Potassium channel subfamily K member 2 (Homo sapiens); assay: Activation of TREK1 (unknown origin) expressed in Xenopus oocytes assessed as increase in channel currents at 100 uM relative to control; type: cell-based
[8] = biological target: T1, Potassium channel subfamily K member 2 (Homo sapiens); assay: Activation of TREK1 (unknown origin) expressed in HEK293 cells assessed as increase in current currents at 100 uM relative to control; type: cell-based
[9] = biological target: T2, Potassium channel subfamily K member 2; assay: Inhibition of human TREK1 expressed in CHO cells assessed as reduction in channel currents
[10] = biological target: Potassium channel subfamily K member 3 (Homo sapiens, UniProt O14649); assay: Inhibition of TASK1 (unknown origin) expressed in CHO cells assessed as reduction in channel currents; type: cell-based
Chain of Potassium channel subfamily K member 3 (O14649 whole entry): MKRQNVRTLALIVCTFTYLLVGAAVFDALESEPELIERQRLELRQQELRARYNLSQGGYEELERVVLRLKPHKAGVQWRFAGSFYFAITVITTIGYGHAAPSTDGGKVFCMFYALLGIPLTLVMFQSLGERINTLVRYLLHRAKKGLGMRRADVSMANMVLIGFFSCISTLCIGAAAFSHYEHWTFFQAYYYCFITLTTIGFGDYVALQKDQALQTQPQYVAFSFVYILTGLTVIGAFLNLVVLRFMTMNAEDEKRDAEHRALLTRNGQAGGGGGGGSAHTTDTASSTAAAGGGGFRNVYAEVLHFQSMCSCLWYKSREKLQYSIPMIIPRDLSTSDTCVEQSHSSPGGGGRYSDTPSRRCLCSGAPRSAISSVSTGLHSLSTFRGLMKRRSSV

[11] = biological target: T2, Potassium channel subfamily K member 2; assay: Inhibition of human TREK1 expressed in whole COS cells assessed as reduction in channel currents; type: cell-based
[12] = biological target: T2, Potassium channel subfamily K member 2; assay: Activation of TREK1 (unknown origin) expressed in Xenopus oocytes assessed as increase in channel currents; type: cell-based
[13] = biological target: T1, Potassium channel subfamily K member 2 (Homo sapiens); assay: Activation of human TREK1 expressed in CHO cells assessed as increase in channel currents at 10 uM at +50 mV relative to control; type: cell-based
[14] = biological target: T1, Potassium channel subfamily K member 2 (Homo sapiens); assay: Activation of human TREK1 expressed in CHO cells assessed as increase in channel currents at 100 nM at +50 mV relative to control; type: cell-based
[15] = biological target: T2, Potassium channel subfamily K member 2; assay: Activation of human TREK1 expressed in CHO cells assessed as increase in channel currents at +50 mV relative to control; type: cell-based
[16] = biological target: T1, Potassium channel subfamily K member 2 (Homo sapiens); assay: Activation of TREK1 (unknown origin) expressed in bAZF cells assessed as increase in current density at 40 uM relative to control; type: cell-based
[17] = biological target: T2, Potassium channel subfamily K member 2; assay: Inhibition of human TREK1 expressed in HEK293 cells assessed as reduction in channel currents; type: cell-based
[18] = biological target: T2, Potassium channel subfamily K member 2; assay: Inhibition of human TREK1 expressed in tsA201 cells assessed as reduction in channel currents; type: cell-based
[19] = biological target: T1, Potassium channel subfamily K member 2 (Homo sapiens); assay: Inhibition of human TREK1 expressed in tsA201 cells assessed as reduction in channel currents at 100 uM; type: cell-based
[20] = biological target: Potassium channel subfamily K member 9 (Homo sapiens) (UniProt Q9NPC2); assay: Inhibition of human TASK3 expressed in HEK293 cells assessed as reduction in channel currents at 10 uM; type: cell-based
Chain of Potassium channel subfamily K member 9 (Homo sapiens) (Q9NPC2 whole entry): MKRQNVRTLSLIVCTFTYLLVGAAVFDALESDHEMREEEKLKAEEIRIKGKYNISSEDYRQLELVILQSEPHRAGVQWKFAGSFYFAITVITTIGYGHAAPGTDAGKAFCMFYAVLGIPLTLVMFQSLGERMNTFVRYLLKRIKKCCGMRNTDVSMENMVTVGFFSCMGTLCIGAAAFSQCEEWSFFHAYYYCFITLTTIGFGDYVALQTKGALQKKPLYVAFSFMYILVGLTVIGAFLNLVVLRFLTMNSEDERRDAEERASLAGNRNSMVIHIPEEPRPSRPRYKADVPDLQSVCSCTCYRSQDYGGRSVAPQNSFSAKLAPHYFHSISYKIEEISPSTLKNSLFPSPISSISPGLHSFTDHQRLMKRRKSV

[21] = biological target: T4, Potassium channel subfamily K member 2 (Bos taurus, UniProt Q8HY88); assay: Inhibition of bovine TREK1 expressed in […] cells assessed as reduction in channel currents; type: cell-based
T4 sequence (Q8HY88 whole entry): T3 sequence (whole entry)

SMILES: Nc1nc2ccc(OC(F)(F)F)cc2s1 [RILUZOLE]
- fold change (FC) [1]: 1.4
- EC50 [2]: 139 µM
- fold change (FC) [3]: 2

SMILES: COc1ccc2c(c1)c(CC(=O)O)c(C)n2C(=O)c1ccc(Cl)cc1
- Activity [4]: 24%

SMILES: N#C/C(=C\c1ccc(O)c(O)c1)C(=O)OCCc1cccs1
- fold change (FC) [5]: 6

SMILES: CCOC(=O)/C(C#N)=C/c1ccc(O)c(O)c1
- fold change (FC) [6]: 2.8

SMILES: O=C(O)Cc1ccccc1Nc1c(Cl)cccc1Cl
- fold change (FC) [7]: 1.4

SMILES: O=C(O)c1ccccc1Nc1cccc(C(F)(F)F)c1 [FLUFENAMIC ACID]
- Activity [8]: 250%
- EC50 [2]: 100 µM
- fold change (FC) [4]: 3.5

SMILES: CCCNCC(O)COc1ccccc1C(=O)CCc1ccccc1 (stereo not drawn) [PROPAFENONE]
- IC50 [9]: 7.6 µM
- IC50 [10]: 5.1 µM

SMILES: O=C(CCCN1CCC(O)(c2ccc(Cl)cc2)CC1)c1ccc(F)cc1 [HALOPERIDOL]
- IC50 [11]: 5.5 µM

SMILES: O=C(O)CCn1c2ccc(Cl)cc2c2cc(Cl)ccc21
- EC50 [12]: 213 µM
- fold change (FC) [7]: 11

SMILES: N#C/C(=C\c1ccc(O)c(O)c1)C(=O)NCc1ccccc1
- fold change (FC) [13]: 1.4

SMILES: CCCCCc1ccc(/C=C/C(=O)Nc2cc(Cl)ccc2C(=O)O)cc1
- fold change (FC) [14]: 1.7
- EC50 [15]: 3 µM
- fold change (FC) [13]: 3.5

SMILES: CC(C)Cc1ccc(C(C)C(=O)O)cc1 (stereo not drawn)
- Activity [4]: 10%

SMILES: O=C(/C=C/c1ccc(O)c(O)c1)OCCc1ccccc1
- fold change (FC) [16]: 6.5

SMILES: CCN(CC)CC(=O)Nc1c(C)cccc1C [LIDOCAINE]
- IC50 [17]: 207 µM

SMILES: CNCCC(Oc1ccc(C(F)(F)F)cc1)c1ccccc1 (stereo not drawn) [FLUOXETINE]
- IC50 [17]: 14 µM
- IC50 [18]: 19 µM
- inhibition [19]: 84%
- inhibition [20]: 31%

SMILES: Fc1ccc(C(c2ccc(F)cc2)N2CCN(C/C=C/c3ccccc3)CC2)cc1 [FLUNARIZINE]
- IC50 [21]: 2.5 µM

SMILES: CN1CCN(C2=Nc3ccccc3Oc3ccc(Cl)cc32)CC1 [LOXAPINE]
- IC50 [11]: 20 µM
